Each structure is given as a SMILES string.

This experiment relates to Radical scavenging activity. The experiment can be described thus: Antioxidant activity assessed as DPPH radical scavenging activity. The class given is functional. In general terms: The DPPH test is a chemical assay of radical scavenging.

By IC50 is commonly meant the concentration that gives 50% inhibition. As to `COc1c(O)cc2c(c1O)C(=O)C1=C(C2=O)C(C)(C)[C@H](C)O1`, the half-maximal inhibitory concentration (IC50) turned out to be 45.7 µM.

With `C[C@@H]1OC2=C(C(=O)c3ccc(O)c(O)c3C2=O)C1(C)C`, the IC50 is 125 µM.

Take `O=C1O[C@H]([C@@H](O)CO)C(O)=C1O` [ASCORBIC ACID]: the IC50 turned out to be 86.9 µM.

Source of the values: ChEMBL document CHEMBL1158775, “Quinones from Chirita eburnea” (J Nat Prod, 2005).
